Patent US20210196838A1, “COMPOUNDS AND COMPOSITIONS FOR POTENTIATION OF TLR AGONISTS” (priority 2018, published 2021)

What was measured:
[1] = system: vesicular stomatitis virus-green fluorescent protein (VSV-GFP); type: cell-based
[2] = system: rainbow trout gut cells (RT-gut); test: Uptake of fluorescently labelled poly IC in RT-gut cells; type: cell-based; conditions: 1 ug/ml, 20 degree treatment, 4 hours
viral infection = conditions: free agonist dosing provided by Zhao et. al, 2012; cited from earlier work

polyinosinic:polycytidylic acid [poly IC]
equivalent dose in an antiviral assay [1]: 1000 µg/mL
intracellular fluorescence [2]: no fluorescence was detected
dose sufficient to protect mice from viral infection (viral infection): 20 µg
